Source: patent publication US20260364088A1, “TASL MIMICKING MOLECULES AND APPLICATIONS THEREOF” (CEMM - FORSCHUNGSZENTRUM FÜR MOLEKULARE MEDIZIN GMBH, priority 2022, published 2026)

Legend:
IRF5 = experiment: Microscopy-based IRF5 nuclear translocation assay in CAL-1 cells; conditions: human monocytic and pDC cell lines
Description: CAL-1, THP1 or human primary cells were incubated with dTASL1 and other identified compounds (or the corresponding volume of DMSO vehicle) for 24 h or 48 h at the indicated concentration and subsequently stimulated with R848 (5 μg/ml) for the indicated time. Supernatant or cells were recovered for ELISA, SDS-PAGE or microscopy-based analysis.
5×10^5 CAL-1 cells in 500 μl medium (wildtype, drug-treated or gene-deficient as indicated) were seeded on poly-L-lysine hydrobromide (P6282, Sigma-Aldrich)-coated coverslips in 24-well cell culture plates and immediately stimulated with 5 μg/ml R848 (Invivogen) or left unstimulated. Afterwards, medium was removed and cells were fixed with 4% formaldehyde in PBS for 15 minutes at room temperature (RT), followed by blocking and permeabilization with 5% FBS and 0.3% Triton X-100 in PBS for 1 h at RT. […]
Images were acquired on a Zeiss LSM-980 equipped with an AiryScan2 detector and processed in Zeiss ZEN version 3.6. Computational image analysis was performed with CellProfiler version 4.2.4 and data analyzed in R version 4.2.1 facilitating the following packages: ‘tidyverse’, ‘data.table’ and ‘ggpubr’. In brief nuclei and cytoplasmic regions were identified and nuclear to cytoplasmic median intensity ratios were calculated on a single cell level. […]

[1] = tested on: TNF production in CD14^+ monocytes; experiment: TNF ELISA, R848-stimulated purified CD14^+ monocytes; format: cell-based, human; conditions: purified CD14^+ cells, dTASL1 10 µM 24 h, R848 (5 μg/ml) 16 h, n=8
From the text: HEK293T cells and THP1 cells were purchased from ATCC, THP1 DUAL/ISRE reporter cell lines from Invivogen. CAL-1 cells were provided by T. Maeda (Nagasaki University). Cell lines—except for CAL-1—were authenticated by short tandem repeat profiling and regularly tested for mycoplasma contamination. Human primary PBMCs were isolated from the blood of anonymous healthy donors as well as SLE patients included in our biobank approved by the ethics committee of the Medical University of Vienna (EK2071/2020 and EK1075/2021). CD14^+ monocytes were purified by magnetic-activated cell sorting (Miltenyi Biotec, #130-050-201) according to the manufacturers protocol. Purity of CD14^+ cells ranged between 80.8% and 94.2% as determined by flow cytometry analysis. […]
Given that all evidence obtained seems to confirm the mechanistic precision of this chemical agent, any further consideration of assessing the therapeutic potential required evidence for activity in human primary cells relevant for SLE pathophysiology. The effect of dTASL1 in human peripheral blood mononuclear cells (PBMCs) was assessed. […] The impact of dTASL1 on TLR7/8 responses by directly monitoring IRF5 by confocal microscopy in B cells was assessed.

CCOc1ccc(-c2cc(C(=O)NCCCN3CCCCC3C)c3ccccc3n2)cc1 (centres unmarked) [dTASL1, 2-(4-ethoxyphenyl)-N-(3-(2-methylpiperidin-1-yl)propyl) quinoline-4-carboxamide]
TLR7/8-induced IRF5 activation (IRF5): specifically impairs TLR7/8-induced IRF5 activation | TNF production [1]: a significant reduction in this proinflammatory cytokine
